In patent publication US12441703B2, “Carboxamides as modulators of sodium channels” (VERTEX PHARMACEUTICALS INCORPORATED, priority 2019, dated 2025) one finds IC50 data, which are given here for 31 compounds.

Like-named read-outs stand apart in the source and are kept apart here.

The target in this assay is human NaV 1.8 (Homo sapiens, UniProt Q9Y5Y9). As to the kind of experiment: E-VIPR assay for detecting and measuring NaV inhibition properties. It counts as cell-based. The following applies: HEK cells expressing truncated human NaV 1.8. The method, boiled down:
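Membrane-potential (coumarin/oxonol) readout after 10 s of 10 Hz biphasic electrical stimulation on E-VIPR. Compounds: 11-point 3-fold dilutions, […], 0.625% DMSO, 30 min at room temperature, human serum optional. Cells: HEK expressing truncated human NaV1.8 co-transduced with KIR2.1.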

The mark [1] stands for this setting: E-VIPR assay conducted in the presence of human serum, read-out: IC50.
[2] abbreviates: E-VIPR assay conducted in the absence of human serum (compounds marked *), read-out: IC50.

Chain of human NaV 1.8 (Q9Y5Y9 whole entry, looked up, the tested form may be a part): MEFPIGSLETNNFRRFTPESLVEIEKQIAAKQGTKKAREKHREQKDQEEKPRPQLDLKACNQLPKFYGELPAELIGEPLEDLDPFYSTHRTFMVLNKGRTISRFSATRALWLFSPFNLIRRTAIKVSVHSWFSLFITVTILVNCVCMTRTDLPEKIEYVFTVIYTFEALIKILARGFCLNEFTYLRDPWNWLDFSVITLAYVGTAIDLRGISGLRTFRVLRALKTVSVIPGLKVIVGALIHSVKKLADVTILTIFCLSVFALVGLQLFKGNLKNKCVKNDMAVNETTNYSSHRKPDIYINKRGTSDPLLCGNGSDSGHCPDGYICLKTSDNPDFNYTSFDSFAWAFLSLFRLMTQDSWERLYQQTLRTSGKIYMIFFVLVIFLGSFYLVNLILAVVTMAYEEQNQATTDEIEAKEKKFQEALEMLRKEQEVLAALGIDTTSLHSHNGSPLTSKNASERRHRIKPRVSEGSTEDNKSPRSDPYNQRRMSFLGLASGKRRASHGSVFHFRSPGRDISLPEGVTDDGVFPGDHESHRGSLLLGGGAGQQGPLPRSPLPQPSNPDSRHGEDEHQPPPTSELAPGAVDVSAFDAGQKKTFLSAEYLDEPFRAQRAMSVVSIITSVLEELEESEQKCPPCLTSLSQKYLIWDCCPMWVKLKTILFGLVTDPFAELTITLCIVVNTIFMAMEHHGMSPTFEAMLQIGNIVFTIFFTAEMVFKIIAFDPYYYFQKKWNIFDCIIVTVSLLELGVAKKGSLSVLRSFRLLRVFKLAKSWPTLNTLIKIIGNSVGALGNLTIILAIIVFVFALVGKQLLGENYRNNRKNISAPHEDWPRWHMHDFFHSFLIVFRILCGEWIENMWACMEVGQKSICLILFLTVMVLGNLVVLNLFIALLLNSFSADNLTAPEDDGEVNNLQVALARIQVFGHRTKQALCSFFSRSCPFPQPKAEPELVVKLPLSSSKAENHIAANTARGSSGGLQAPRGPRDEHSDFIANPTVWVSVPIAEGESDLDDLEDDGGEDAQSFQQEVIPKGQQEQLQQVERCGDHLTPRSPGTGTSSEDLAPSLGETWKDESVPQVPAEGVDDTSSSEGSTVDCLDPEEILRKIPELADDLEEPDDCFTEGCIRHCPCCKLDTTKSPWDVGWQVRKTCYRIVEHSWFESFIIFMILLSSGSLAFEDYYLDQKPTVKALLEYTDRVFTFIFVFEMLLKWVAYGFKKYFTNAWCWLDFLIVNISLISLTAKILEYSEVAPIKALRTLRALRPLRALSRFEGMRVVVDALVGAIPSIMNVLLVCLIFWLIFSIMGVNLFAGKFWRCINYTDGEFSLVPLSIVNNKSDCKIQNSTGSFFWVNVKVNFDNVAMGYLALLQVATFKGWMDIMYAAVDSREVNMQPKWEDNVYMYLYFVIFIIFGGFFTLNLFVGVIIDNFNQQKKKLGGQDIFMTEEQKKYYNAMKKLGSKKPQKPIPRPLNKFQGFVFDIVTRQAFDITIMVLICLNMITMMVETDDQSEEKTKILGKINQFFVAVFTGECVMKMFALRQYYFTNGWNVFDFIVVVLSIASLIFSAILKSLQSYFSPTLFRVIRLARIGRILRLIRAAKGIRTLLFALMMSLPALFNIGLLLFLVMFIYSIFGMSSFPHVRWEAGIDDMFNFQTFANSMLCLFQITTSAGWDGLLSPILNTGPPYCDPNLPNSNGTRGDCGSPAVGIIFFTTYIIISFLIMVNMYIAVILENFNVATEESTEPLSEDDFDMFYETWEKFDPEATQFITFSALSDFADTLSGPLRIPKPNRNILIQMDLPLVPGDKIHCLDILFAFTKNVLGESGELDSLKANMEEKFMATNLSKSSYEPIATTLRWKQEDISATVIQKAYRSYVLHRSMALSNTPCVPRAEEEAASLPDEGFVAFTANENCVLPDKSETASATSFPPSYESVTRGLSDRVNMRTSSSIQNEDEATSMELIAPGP

Consider `CCc1c(Oc2ccc(C(F)(F)F)c(F)c2C(=O)Nc2ccnc(C(N)=O)c2)ccc(OC(F)(F)F)c1F` [Compound 344, 4-[[6-[2-ethyl-3-fluoro-4-(trifluoromethoxy)phenoxy]-2-fluoro-3-(trifluoromethyl)benzoyl]amino]pyridine-2-carboxamide], for which, under setting [1], the IC50 was found to be 4.7 nM.

Take `COc1cc(OC(F)(F)F)ccc1Oc1cc(F)cc(F)c1C(=O)Nc1ccnc(C(N)=O)c1` [Compound 360, 4-[[2,4-difluoro-6-[2-methoxy-4-(trifluoromethoxy)phenoxy]benzoyl]amino]pyridine-2-carboxamide]: under setting [2], the IC50 is 14 nM.

Regarding `COc1cc(OC(F)(F)F)ccc1Oc1cc(OC)c(C(F)(F)F)c(F)c1C(=O)Nc1ccnc(C(N)=O)c1` [Compound 352, 4-[[2-fluoro-4-methoxy-6-[2-methoxy-4-(trifluoromethoxy)phenoxy]-3-(trifluoromethyl)benzoyl]amino]pyridine-2-carboxamide], under setting [1], the IC50 stood at 1.8 nM.

Take `COc1cc(OC(F)(F)F)ccc1Oc1cc(C2=CCC(C(F)(F)F)CC2)cc(F)c1C(=O)Nc1ccnc(C(N)=O)c1` (stereo not shown) [Compound 1013, 4-[[2-fluoro-6-[2-methoxy-4-(trifluoromethoxy)phenoxy]-4-[4-(trifluoromethyl)cyclohexen-1-yl]benzoyl]amino]pyridine-2-carboxamide]: under setting [1], the half-inhibitory concentration (IC50) came to 13 nM.

Take `Cc1c(Oc2ccc(Cl)c(F)c2C(=O)Nc2ccnc(C(N)=O)c2)ccc(OC(F)(F)F)c1F` [Compound 295, 4-[[3-Chloro-2-Fluoro-6-[3-Fluoro-2-Methyl-4-(Trifluoromethoxy)Phenoxy]Benzoyl]Amino]Pyridine-2-Carboxamide]: the IC50 under setting [1] was found to be 6.5 nM.

For the compound `COc1cc(OC(F)(F)F)ccc1Oc1cc(C(F)(F)F)c(OC)cc1C(=O)Nc1ccnc(C(N)=O)c1` [Compound 276, 4-[[5-Methoxy-2-[2-Methoxy-4-(Trifluoromethoxy)Phenoxy]-4-(Trifluoromethyl)Benzoyl]Amino]Pyridine-2-Carboxamide], the IC50 under setting [1] was found to be 440 nM.

In the case of `COc1c(Oc2cc3c(c(C)c2C(=O)Nc2ccnc(C(N)=O)c2)OC(F)(F)O3)ccc(OC(F)(F)F)c1F` [Compound 327, 4-[[2,2-difluoro-6-[3-fluoro-2-methoxy-4-(trifluoromethoxy)phenoxy]-4-methyl-1,3-benzodioxole-5-carbonyl]amino]pyridine-2-carboxamide], the IC50 under setting [1] was 8.3 nM.

For `Cc1c(Oc2ccc(C(F)(F)F)c(C)c2C(=O)Nc2ccnc(C(N)=O)c2)ccc(F)c1F` [Compound 149, 4-[[6-(3,4-difluoro-2-methyl-phenoxy)-2-methyl-3-(trifluoromethyl)benzoyl]amino]pyridine-2-carboxamide], under setting [1], the IC50 turned out to be 19 nM.

In the case of `COc1cc(OC(F)(F)F)ccc1Oc1ccc(C(F)(F)F)c(O)c1C(=O)Nc1ccnc(C(N)=O)c1` [Compound 383, 4-[[2-hydroxy-6-[2-methoxy-4-(trifluoromethoxy)phenoxy]-3-(trifluoromethyl)benzoyl]amino]pyridine-2-carboxamide], the IC50 under setting [1] is above 3000 nM.

Take `COc1c(C(F)(F)F)ccc(Oc2ccc(OC(C)C)c(F)c2)c1C(=O)Nc1ccnc(C(N)=O)c1` [Compound 67, 4-[[6-(3-fluoro-4-isopropoxy-phenoxy)-2-methoxy-3-(trifluoromethyl)benzoyl]amino]pyridine-2-carboxamide]: the IC50 under setting [1] is 110 nM.

In the case of `Cc1cc(OC(F)(F)F)cc(Oc2ccc(OC(F)(F)F)cc2Cl)c1C(=O)Nc1ccnc(C(N)=O)c1` [Compound 241, 4-[[2-[2-chloro-4-(trifluoromethoxy)phenoxy]-6-methyl-4-(trifluoromethoxy)benzoyl]amino]pyridine-2-carboxamide], the IC50 under setting [1] is 190 nM.

For `COc1cc(F)ccc1-c1ccc(C(F)(F)F)c(F)c1C(=O)Nc1ccnc(C(N)=O)c1` [Compound 251, 4-[[2-fluoro-6-(4-fluoro-2-methoxy-phenyl)-3-(trifluoromethyl)benzoyl]amino]pyridine-2-carboxamide], the IC50 under setting [1] was above 3000 nM.

As to `COc1c(C(F)(F)F)ccc(Oc2ccccc2)c1C(=O)Nc1ccnc(C(N)=O)c1` [Compound 63, 4-[[2-methoxy-6-phenoxy-3-(trifluoromethyl)benzoyl]amino]pyridine-2-carboxamide], the IC50 under setting [1] is 1800 nM.

For `COc1c(Oc2ccc(C(F)(F)F)c(C)c2C(=O)Nc2cc(C(N)=O)ccn2)ccc(OC(F)(F)F)c1F` [Compound 313, 2-[[6-[3-fluoro-2-methoxy-4-(trifluoromethoxy)phenoxy]-2-methyl-3-(trifluoromethyl)benzoyl]amino]pyridine-4-carboxamide], the 50% inhibitory concentration (IC50) under setting [1] amounted to 121 nM.

On to `COc1c(Oc2ccc(C3CCC3)c(F)c2C(=O)Nc2ccnc(C(N)=O)c2)ccc(OC(F)(F)F)c1F` [Compound 310, 4-[[3-cyclobutyl-2-fluoro-6-[3-fluoro-2-methoxy-4-(trifluoromethoxy)phenoxy]benzoyl]amino]pyridine-2-carboxamide], for which the IC50 under setting [1] turned out to be 2.5 nM.

On to `COc1cc(C(F)F)ccc1Oc1ccc(C(F)(F)F)c(F)c1C(=O)Nc1ccnc(C(N)=O)c1` [Compound 341, 4-[[6-[4-(difluoromethyl)-2-methoxy-phenoxy]-2-fluoro-3-(trifluoromethyl)benzoyl]amino]pyridine-2-carboxamide], for which the IC50 under setting [1] worked out at 330 nM.

On to `NC(=O)c1cc(NC(=O)c2c(Oc3ccc(F)cc3Cl)cccc2C(F)(F)F)ccn1` [Compound 79, 4-[[2-(2-chloro-4-fluoro-phenoxy)-6-(trifluoromethyl)benzoyl]amino]pyridine-2-carboxamide], for which, under setting [1], the IC50 was above 3000 nM.

For `Cc1cc(Cl)cc(Cl)c1Oc1ccc(C(F)(F)F)c(C)c1C(=O)Nc1ccnc(C(N)=O)c1` [Compound 142, 4-[[6-(2,4-dichloro-6-methyl-phenoxy)-2-methyl-3-(trifluoromethyl)benzoyl]amino]pyridine-2-carboxamide], the IC50 under setting [1] was determined as 1700 nM.

As for `COc1c(Oc2ccc(C(F)(F)F)c(C)c2C(=O)Nc2cc(C(N)=O)ncc2C)ccc(OC(F)(F)F)c1F` [Compound 312, 4-[[6-[3-fluoro-2-methoxy-4-(trifluoromethoxy)phenoxy]-2-methyl-3-(trifluoromethyl)benzoyl]amino]-5-methyl-pyridine-2-carboxamide], the IC50 under setting [1] was 7.9 nM.

In the case of `COc1cc(OC(F)(F)F)ccc1Oc1ccc(C2CC2)c(C)c1C(=O)Nc1ccc(C(N)=O)nc1` [Compound 182], the 50% inhibitory concentration (IC50) under setting [1] worked out at 290 nM.

For `COc1cc(OC(F)(F)F)ccc1Oc1ccc(C(F)(F)F)c(F)c1C(=O)Nc1cc(C(N)=O)ncn1` [Compound 355, 6-[[2-fluoro-6-[2-methoxy-4-(trifluoromethoxy)phenoxy]-3-(trifluoromethyl)benzoyl]amino]pyrimidine-4-carboxamide], the IC50 under setting [1] was 150 nM.

Regarding `COc1cc(OC(F)(F)F)ccc1Oc1ccc(-c2ccccc2)c(F)c1C(=O)Nc1ccnc(C(N)=O)c1` [Compound 177, 4-[[2-fluoro-6-[2-methoxy-4-(trifluoromethoxy)phenoxy]-3-phenyl-benzoyl]amino]pyridine-2-carboxamide], under “E-VIPR assay conducted in the presence of human serum”, the IC50 turned out to be 20 nM.

Consider `COc1cc(OC(F)(F)F)ccc1Oc1ccc(C(F)(F)F)c(F)c1C(=O)Nc1cnnc(C(N)=O)c1` [Compound 356, 5-[[2-fluoro-6-[2-methoxy-4-(trifluoromethoxy)phenoxy]-3-(trifluoromethyl)benzoyl]amino]pyridazine-3-carboxamide], for which the IC50 under setting [1] worked out at 3.3 nM.

For the compound `COc1cc(OC(F)(F)F)ccc1Oc1ccc(C(F)(F)F)c(NCC(C)C)c1C(=O)Nc1ccnc(C(N)=O)c1` [Compound 87, 4-[[2-(isobutylamino)-6-[2-methoxy-4-(trifluoromethoxy)phenoxy]-3-(trifluoromethyl)benzoyl]amino]pyridine-2-carboxamide], the half-inhibitory concentration (IC50) under setting [1] came out at 1500 nM.

With `COc1cc(OC(F)(F)F)ccc1Oc1cc(OC)c(C)c(Cl)c1C(=O)Nc1ccnc(C(N)=O)c1` [Compound 363, 4-[[2-chloro-4-methoxy-6-[2-methoxy-4-(trifluoromethoxy)phenoxy]-3-methyl-benzoyl]amino]pyridine-2-carboxamide], the IC50 under setting [2] came to 3 nM.

Consider `COc1cc(OC(F)(F)F)ccc1Oc1cc(C2=CC3CCC2C3)cc(F)c1C(=O)Nc1ccnc(C(N)=O)c1` (stereo not shown) [Compound 1014, 4-[[4-(2-bicyclo[2.2.1]hept-2-enyl)-2-fluoro-6-[2-methoxy-4-(trifluoromethoxy)phenoxy]benzoyl]amino]pyridine-2-carboxamide], for which the IC50 under setting [1] was 33 nM.

As to `COc1cc(OC(F)(F)F)ccc1Oc1ccc(CC(C)C)c(C)c1C(=O)Nc1ccnc(C(N)=O)c1` [Compound 185, 4-[[3-isobutyl-6-[2-methoxy-4-(trifluoromethoxy)phenoxy]-2-methyl-benzoyl]amino]pyridine-2-carboxamide], the 50% inhibitory concentration (IC50) under setting [1] is 11 nM.

Regarding `COc1cc(OC(F)(F)F)ccc1Oc1cc(C2CCOC2)ccc1C(=O)Nc1ccnc(C(N)=O)c1` (stereo not shown) [Compound 1033], under setting [1], the half-maximal inhibitory concentration (IC50) turned out to be 840 nM.

For `CC(C)Oc1ccc(Oc2ccc(C(F)(F)F)c(F)c2C(=O)Nc2ccnc(C(N)=O)c2)cc1` [Compound 37, 4-[[2-fluoro-6-(4-isopropoxyphenoxy)-3-(trifluoromethyl)benzoyl]amino]pyridine-2-carboxamide], under setting [1], the IC50 turned out to be 26 nM.

`COc1cc(OC(F)(F)F)ccc1Oc1ccc(C(F)(F)F)c(Cl)c1C(=O)Nc1ccnc(C(N)=O)c1` [Compound 191, 4-[[2-chloro-6-[2-methoxy-4-(trifluoromethoxy)phenoxy]-3-(trifluoromethyl)benzoyl]amino]pyridine-2-carboxamide]: the half-maximal inhibitory concentration (IC50) under setting [1] amounted to 2 nM.

Take `[2H]C([2H])([2H])Oc1cc(OC(F)(F)F)ccc1Oc1cc(C2CCCC2)cc(F)c1C(=O)Nc1ccnc(C(N)=O)c1` [Compound 96, 4-[[4-Cyclopentyl-2-Fluoro-6-[2-(Trideuteriomethoxy)-4-(Trifluoromethoxy)Phenoxy]Benzoyl]Amino]Pyridine-2-Carboxamide]: the IC50 under setting [1] was found to be 13 nM.
